Source: patent US20250002486A1, “CYCLIC SULFONAMIDE RIBONUCLEOTIDE REDUCTASE (RNR) INHIBITORS AND USES THEREOF” (Boundless Bio, Inc., priority 2021, published 2025)
pIC50: −log10 of the molar value.

Assays:
[1] = tested on: pCHK1 (S345) in Colo320 DM cells; assay: Alphalisa assay: pCHK1 (S345) detection in Colo320 DM cells; type: cell-based, human; conditions: Homo sapiens, COLO 320DM, compound incubation overnight (approximately 16 hours), pCHK1 (S345) AlphaLisa Sure Fire kit
Procedure: Colo320 DM cells (ATCC #CCL-220, derived from human colorectal adenocarcinoma, Dukes' type C) were seeded on a 96-well, cell culture treated assay plate at a density of 50,000 cells/well in 200 μL of RPMI-1640 media supplemented with 10% Fetal Bovine Serum and incubated at 37 degrees Celsius overnight. The following day, test compound dilutions were added directly to the plated cells by a Tecan digital dispenser to a final DMSO concentration of <0.5%. and incubated at 37 degrees Celsius overnight (approximately 16 hours). The following day all cull culture media was removed from the cells. 75 μL of 1× AlphaLisa lysis buffer was added to each well and plates were agitated on a shaker for 30 minutes at room temperature. The lysis of cells and detection of pCHK1 (S345) were performed with regents contained within the AlphaLisa Sure Fire assay kit (Perkin Elmer #ALSU-PCHK1-A) according to the manufacturer's instructions. 10 μL of each lysate was then transferred to a white, 384-well assay plate (Perkin Elmer #6008280). 5 μL of Acceptor mix was then added to each well of lysate in the white, 384-well assay plate and incubated in the dark at room temperature for 60 minutes. 5 μL of Donor mix was then added to each well of the white, 384-well assay plate in subdued light and incubated at room temperature for 60 minutes. Plates were read on an Alpha Technology-compatible plate reader using standard AlphaLisa settings.

RNR (RNR1:RNR2 1:1) = RNR (RNR1:RNR2 1:1) (Homo sapiens (Human), UniProt P23921); assay: RNR enzyme activity, rapid-fire mass spectrometry (RF/MS) assay; type: biochemical; conditions: RNR 50 nM, 1:1 RNR1:RNR2; CDP 5 μM, ATP 1 mM; 37° C., 45 min; compounds screened up to 50 μM
Chain of RNR (RNR1:RNR2 1:1) (P23921 whole entry): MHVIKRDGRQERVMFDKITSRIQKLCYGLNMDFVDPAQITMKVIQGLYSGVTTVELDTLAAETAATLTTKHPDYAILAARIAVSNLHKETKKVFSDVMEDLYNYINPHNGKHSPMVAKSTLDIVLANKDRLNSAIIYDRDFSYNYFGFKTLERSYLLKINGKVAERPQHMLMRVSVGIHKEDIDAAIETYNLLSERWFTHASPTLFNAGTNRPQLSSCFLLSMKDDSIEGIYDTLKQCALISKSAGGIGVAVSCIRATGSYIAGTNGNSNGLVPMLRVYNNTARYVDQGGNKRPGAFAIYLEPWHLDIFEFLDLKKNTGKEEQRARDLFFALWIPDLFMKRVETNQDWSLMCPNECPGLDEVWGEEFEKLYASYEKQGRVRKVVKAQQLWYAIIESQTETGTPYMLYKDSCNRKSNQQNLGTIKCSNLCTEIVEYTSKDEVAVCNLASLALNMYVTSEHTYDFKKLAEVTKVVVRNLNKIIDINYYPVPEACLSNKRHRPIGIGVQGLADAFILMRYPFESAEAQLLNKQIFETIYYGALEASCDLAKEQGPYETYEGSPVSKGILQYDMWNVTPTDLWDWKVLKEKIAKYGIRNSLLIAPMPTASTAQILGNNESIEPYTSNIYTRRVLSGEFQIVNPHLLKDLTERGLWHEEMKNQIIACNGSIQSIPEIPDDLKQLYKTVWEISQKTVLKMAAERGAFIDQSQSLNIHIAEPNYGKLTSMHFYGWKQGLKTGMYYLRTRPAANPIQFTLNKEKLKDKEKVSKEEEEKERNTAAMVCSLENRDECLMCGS
Procedure: A rapid-fire mass spectrometry (RF/MS) assay was used to assess RNR enzyme activity using a 384 well plate and a robotic platform.
The plate layout included two validated reference compounds (Triapine (3-AP) and Hydroxyurea (HU)): • A dose response in duplicate; top concentration: 5 μM (3-AP) and 250 μM (HU), semi-log • dilutions. • Spike wells in triplicate randomly spotted at four concentrations: • 250 μM, 100 μM, 30 μM and 2 μM for HU • 5 μM, 2 μM, 0.6 μM and 0.04 μM for 3-AP
First, the multidrop pipes were saturated for 30 minutes with enzymatic solution. Then 30 μL of Stop solution was distributed in column 24. Next, 15 μL of enzyme was distributed in column 1 to 24. Next, a pre-incubation step of 15 minutes at room temperature occurred, followed by distribution of 15 μL of substrate solution (column 1 to 24). Next, the plate was incubated for 45 minutes at 37° C. 30 μL of Stop solution was distributed to columns 1 to 23.
The final parameters for the enzyme reactions were: • Incubation: 37° C., 45 min • [CDP]: 5 μM; [ATP]: 1 mM; [NADPH]: No • [RNR]final: 50 nM with 1:1 (RNR1:RNR2) ratio • Final volume: 30 μL • Stop solution: 6% HCOOH containing 2 μM of 15

SMILES	pIC50 [1]	pIC50 (RNR (RNR1:RNR2 1:1))
Cc1ccc(F)c([C@H](C)[C@@H](c2n[nH]c(=O)o2)N2CCc3ccc(Cl)cc3S2(=O)=O)c1C [Example 12, 5-((1S,2s)-1-(7-chloro-1,1-dioxido-3,4-dihydro-2H-benzo[e][1,2]thiazin-2-yl)-2-(6-fluoro-2,3-dimethylphenyl)propyl)-1,3,4-oxadiazol-2(3H)-one]	< 4.30	4.00 to 5.00
Cc1ccc(F)c(C(C)[C@@H](c2n[nH]c(=O)o2)N2CC(=O)c3cc(Cl)ccc3S2(=O)=O)c1C (stereo partly drawn) [Example 16, 5-((1S)-1-(6-chloro-1,1-dioxido-4-oxo-3,4-dihydro-2H-benzo[e] [1,2]thiazin-2-yl)-2-(6-fluoro-2,3-dimethylphenyl)propyl)-1,3,4-oxadiazol-2(3H)-one]	5.00 to 5.30	6.00 to 7.00
COc1cc(Cl)cc2c1S(=O)(=O)N([C@H](c1n[nH]c(=O)o1)[C@@H](C)c1c(F)ccc(C)c1C)C2 [Example 5, 5-((1S,2S)-1-(5-chloro-7-methoxy-1,1-dioxidobenzo [d]isothiazol-2(3H)-yl)-2-(6-fluoro-2,3-dimethylphenyl)propyl)-1,3,4-oxadiazol-2(3H)-one]	< 4.30	4.00 to 5.00
Cc1ccc(F)c(C(C)[C@@H](c2n[nH]c(=O)o2)N2CC(C)(C)c3cc(Cl)ccc3S2(=O)=O)c1C (stereo partly drawn) [Example 21, 5-((1S)-1-(6-chloro-4,4-dimethyl-1,1-dioxido-3,4-dihydro-2H-benzo[e][1,2]thiazin-2-yl)-2-(6-fluoro-2,3-dimethylphenyl)propyl)-1,3,4-oxadiazol-2(3H)-one]	< 4.30	5.00 to 6.00
Cc1ccc(F)c([C@@H](C)[C@@H](c2n[nH]c(=O)o2)N2CCc3c(Cl)cccc3S2(=O)=O)c1C [Example 23, 5-((1S,2R)-1-(5-chloro-1,1-dioxido-3,4-dihydro-2H-benzo[e][1,2]thiazin-2-yl)-2-(6-fluoro-2,3-dimethylphenyl)propyl)-1,3,4-oxadiazol-2(3H)-one]	4.30 to 5.00	6.00 to 7.00
Cc1ccc(F)c([C@@H](C)[C@@H](c2n[nH]c(=O)o2)N2Cc3cc(Cl)ccc3S2(=O)=O)c1C [Example 14, 5-((1S,2R)-1-(5-chloro-1,1-dioxidobenzo [d]isothiazol-2(3H)-yl)-2-(6-fluoro-2,3-dimethylphenyl)propyl)-1,3,4-oxadiazol-2(3H)-one]	< 4.30	5.00 to 6.00
COc1cc(Cl)cc2c1S(=O)(=O)N([C@@H](c1n[nH]c(=O)o1)[C@@H](C)c1c(F)ccc(C)c1C)C2=O (stereo in doubt) [Example 15, 5-((1R,2S)-1-(5-chloro-7-methoxy-1,1-dioxido-3-oxobenzo[d]isothiazol-2(3H)-yl)-2-(6-fluoro-2,3-dimethylphenyl)propyl)-1,3,4-oxadiazol-2(3H)-one]	< 4.30	4.00 to 5.00
Cc1ccc(F)c([C@@H](C)[C@@H](c2n[nH]c(=O)o2)N2CCCc3cc(Cl)ccc3S2(=O)=O)c1C [Example 9, 5-((1S,2R)-1-(7-chloro-1,1-dioxido-4,5-dihydrobenzo [f][1,2]thiazepin-2(3H)-yl)-2-(6-fluoro-2,3-dimethylphenyl)propyl)-1,3,4-oxadiazol-2(3H)-one]	≥ 5.30	≥ 7.00
Cc1ccc(F)c([C@H](C)[C@@H](c2n[nH]c(=O)o2)N2CCCc3cc(Cl)ccc3S2(=O)=O)c1C [Example 10, 5-((1S,2S)-1-(7-chloro-1,1-dioxido-4,5-dihydrobenzo [f][1,2]thiazepin-2(3H)-yl)-2-(6-fluoro-2,3-dimethylphenyl)propyl)-1,3,4-oxadiazol-2(3H)-one]	< 4.30	4.00 to 5.00
Cc1ccc(F)c([C@@H](C)[C@@H](c2n[nH]c(=O)o2)N2CCc3cc(Cl)ccc3S2(=O)=O)c1C [Example 7, 5-((1S,2R)-1-(6-chloro-1,1-dioxido-3,4-dihydro-2H-benzo[e][1,2]thiazin-2-yl)-2-(6-fluoro-2,3-dimethylphenyl)propyl)-1,3,4-oxadiazol-2(3H)-one]	≥ 5.30	≥ 7.00
COc1cc(Cl)cc2c1S(=O)(=O)N([C@@H](c1n[nH]c(=O)o1)[C@H](C)c1c(F)ccc(C)c1C)C2=O (stereo in doubt) [Example 4, 5-((1R,2R)-1-(5-chloro-7-methoxy-1,1-dioxido-3-oxobenzo[d]isothiazol-2(3H)-yl)-2-(6-fluoro-2,3-dimethylphenyl)propyl)-1,3,4-oxadiazol-2(3H)-one]	< 4.30	4.00 to 5.00
Cc1ccc(F)c([C@@H](C)[C@@H](c2nn[nH]n2)N2CCc3cc(Cl)ccc3S2(=O)=O)c1C [Example 13, 6-chloro-2-((1S,2R)-2-(6-fluoro-2,3-dimethylphenyl)-1-(2H-tetrazol-5-yl)propyl)-3,4-dihydro-2H-benzo[e][1,2] thiazine 1,1-dioxide]	5.00 to 5.30	≥ 7.00
Cc1ccc(F)c(C(C)[C@@H](c2n[nH]c(=O)o2)N2CC(C)c3cc(Cl)ccc3S2(=O)=O)c1C (stereo partly drawn) [Example 20, 5-((1S)-1-(6-chloro-4-methyl-1,1-dioxido-3,4-dihydro-2H-benzo[e][1,2]thiazin-2-yl)-2-(6-fluoro-2,3-dimethylphenyl)propyl)-1,3,4-oxadiazol-2(3H)-one]	≥ 5.30	≥ 7.00
Cc1ccc(F)c([C@@H](C)[C@@H](c2n[nH]c(=O)o2)N2C(=O)c3cc(Cl)ccc3S2(=O)=O)c1C [Example 1, 5-((1S,2R)-1-(5-chloro-1,1-dioxido-3-oxobenzo[d]isothiazol-2(3H)-yl)-2-(6-fluoro-2,3-dimethylphenyl)propyl)-1,3,4-oxadiazol-2(3H)-one]	< 4.30	4.00 to 5.00
Cc1ccc(F)c([C@@H](C)[C@@H](c2n[nH]c(=O)o2)N2CC(C)(O)c3cc(Cl)ccc3S2(=O)=O)c1C (stereo partly drawn) [Example 25, 5-((1S,2R)-1-(6-chloro-4-hydroxy-4-methyl-1,1-dioxido-3,4-dihydro-2H-benzo[e][1,2]thiazin-2-yl)-2-(6-fluoro-2,3-dimethylphenyl)propyl)-1,3,4-oxadiazol-2(3H)-one]	4.30 to 5.00	≥ 7.00
Cc1ccc(F)c([C@@H](C)[C@@H](c2n[nH]c(=O)o2)N2CCc3nc(Cl)ccc3S2(=O)=O)c1C [Example 24, 5-((1S,2R)-1-(6-chloro-1,1-dioxido-3,4-dihydro-2H-pyrido[2,3-e] [1,2]thiazin-2-yl)-2-(6-fluoro-2,3-dimethylphenyl)propyl)-1,3,4-oxadiazol-2(3H)-one]	≥ 5.30	≥ 7.00
Cc1ccc(F)c([C@@H](C)[C@@H](c2n[nH]c(=O)o2)N2CCc3ccccc3S2(=O)=O)c1C [Example 18, 5-((1S,2R)-1-(1,1-dioxido-3,4-dihydro-2H-benzo[e] [1,2]thiazin-2-yl)-2-(6-fluoro-2,3-dimethylphenyl)propyl)-1,3,4-oxadiazol-2(3H)-one]	4.30 to 5.00	6.00 to 7.00
